Patent US10590113B2, “6-hydroxy-4-oxo-1,4-dihydropyrimidine-5-carboxamides as APJ agonists” (priority 2016, dated 2020)

Each molecule was assayed against T1, human APJ receptor (Homo sapiens, UniProt P35414) (assay: Intracellular cAMP Accumulation Assay (APJ hcAMP, HTRF)). Conditions: HEK293 cells stably expressing human APJ receptor; inhibition of forskolin-mediated cAMP production; read-out: Human APJ cAMP EC50 potency range.
T1 construct: expressed in transfected cells; host or cells: HEK293
T1 sequence (P35414 1-380): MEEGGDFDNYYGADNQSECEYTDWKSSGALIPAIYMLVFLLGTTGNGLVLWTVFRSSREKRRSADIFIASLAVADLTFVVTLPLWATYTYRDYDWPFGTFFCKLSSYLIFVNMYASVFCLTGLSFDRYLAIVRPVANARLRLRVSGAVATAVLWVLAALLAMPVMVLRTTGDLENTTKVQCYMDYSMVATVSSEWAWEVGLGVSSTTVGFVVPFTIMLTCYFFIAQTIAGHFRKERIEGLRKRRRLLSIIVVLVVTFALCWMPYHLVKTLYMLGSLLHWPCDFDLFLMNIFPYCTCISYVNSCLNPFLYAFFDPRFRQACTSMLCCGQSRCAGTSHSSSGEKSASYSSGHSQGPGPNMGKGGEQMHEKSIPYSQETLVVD
Assay type: cell-based
In short: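 Stably transfected HEK293 cells (5,000/well) incubated 30 min at room temperature with serially diluted compound, […] and 2 μM forskolin. cAMP measured by HTRF after 60 min with detection reagents, quantified against a cAMP standard curve; EC50 from variable-slope sigmoidal fit of inhibition of forskolin-stimulated cAMP.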
In the case of `CCOCc1nc(=O)c(C(=O)N2CCC(c3ccccn3)C2)c(O)n1-c1c(OC)cccc1OC` (stereo not shown) [Example 3, 1-(2,6-Dimethoxyphenyl)-2-(ethoxymethyl)-6-hydroxy-5-(3-(pyridin-2-yl)pyrrolidine-1-carbonyl)pyrimidin-4(1H)-one], the EC50 is reported as 0.01 to 10 nM.

Same assay, conditions: human APJ, cAMP accumulation; potency range class; read-out: hAPJ cAMP EC50 Potency range
Work on `COc1cccc(OC)c1-n1c(-c2cccc(C)c2)nc(=O)c(C(=O)N2CCC(c3ccccc3C#N)C2)c1O` (single isomer, unassigned) [Example 242, 2-{1-[1-(2,6-dimethoxyphenyl)-6-hydroxy-2-(3-methylphenyl)-4-oxo-1,4-dihydropyrimidine-5-carbonyl]pyrrolidin-3-yl}benzonitrile] yielded an EC50 of 0.01 to 10 nM.
`COc1cccc(OC)c1-n1c(Cc2ccc(F)cc2)nc(=O)c(C(=O)N2CCC(c3ccccc3F)C2)c1O` (single isomer, unassigned) [Example 231, 1-(2,6-dimethoxyphenyl)-2-[(4-fluorophenyl)methyl]-5-[3-(2-fluorophenyl)pyrrolidine-1-carbonyl]-6-hydroxy-1,4-dihydropyrimidin-4-one] showed an EC50 of 10 to 100 nM.
For `COc1cccc(-c2nc(=O)c(C(=O)N3CCC(c4ncccc4F)C3)c(O)n2-c2c(OC)cccc2OC)c1` (single isomer, unassigned) [Example 245, 1-(2,6-dimethoxyphenyl)-5-[3-(3-fluoropyridin-2-yl)pyrrolidine-1-carbonyl]-6-hydroxy-2-(3-methoxyphenyl)-1,4-dihydropyrimidin-4-one], the EC50 was 0.01 to 10 nM.
With `COc1cccc(OC)c1-n1c(-c2cccc(C)c2)nc(=O)c(C(=O)N2CCC(c3ncc(Cl)cc3F)C2)c1O` (single isomer, unassigned) [Example 263, 5-[3-(5-chloro-3-fluoropyridin-2-yl)pyrrolidine-1-carbonyl]-1-(2,6-dimethoxyphenyl)-6-hydroxy-2-(3-methylphenyl)-1,4-dihydropyrimidin-4-one] the EC50 was 0.01 to 10 nM.
With `COc1cccc(OC)c1-n1c(-c2cccc(Cl)c2)nc(=O)c(C(=O)N2CCC(c3ccccc3C#N)C2)c1O` (single isomer, unassigned) [Example 237, 2-{1-[2-(3-chlorophenyl)-1-(2,6-dimethoxyphenyl)-6-hydroxy-4-oxo-1,4-dihydropyrimidine-5-carbonyl]pyrrolidin-3-yl}benzonitrile] the EC50 was 0.01 to 10 nM.
With `CC[C@@H](c1ccccc1)n1c(-c2ccc(F)c(C)c2)nc(=O)c(C(=O)N2CC[C@H](c3ccccc3)C2)c1O` [Example 314, 2-(4-fluoro-3-methylphenyl)-6-hydroxy-1-[(1S)-1-phenylpropyl]-5-[(3R)-3-phenylpyrrolidine-1-carbonyl]-1,4-dihydropyrimidin-4-one] the EC50 was 0.01 to 10 nM.
In the case of `CCc1cccc(CC)c1-n1c(COC(C)C)nc(=O)c(C(=O)N2CCC(c3ccncc3)C2)c1O` (single isomer, unassigned) [Example 221, 1-(2,6-diethylphenyl)-6-hydroxy-2-[(propan-2-yloxy)methyl]-5-[3-(pyridin-4-yl)pyrrolidine-1-carbonyl]-1,4-dihydropyrimidin-4-one], the EC50 is reported as 10 to 100 nM.
`CCCCc1nc(O)c(C(=O)N2CCC(c3ncc(F)cc3F)C2)c(=O)n1[C@@H](CC)c1ccccc1` (single isomer, unassigned) [Example 345] showed an EC50 of 0.01 to 10 nM.
Molecule `COc1cccc(OC)c1-n1c(-c2cccc(C)c2)nc(=O)c(C(=O)N2CCC(c3c(F)cccc3F)C2)c1O` (single isomer, unassigned) [Example 241, 5-[3-(2,6-difluorophenyl)pyrrolidine-1-carbonyl]-1-(2,6-dimethoxyphenyl)-6-hydroxy-2-(3-methylphenyl)-1,4-dihydropyrimidin-4-one] has an EC50 of 0.01 to 10 nM.
`CCCc1nc(O)c(C(=O)N2CC[C@H](c3ccccc3)C2)c(=O)n1[C@@H](COC)c1ccccc1` [Example 329, 6-hydroxy-3-[(1R)-2-methoxy-1-phenylethyl]-5-[(3R)-3-phenylpyrrolidine-1-carbonyl]-2-propyl-3,4-dihydropyrimidin-4-one] showed an EC50 of 10 to 100 nM.
`COc1cccc(OC)c1-n1c(-c2ccc(C)cn2)nc(=O)c(C(=O)N2CCC(c3c(F)cccc3F)C2)c1O` (single isomer, unassigned) [Example 274, 5-[3-(2,6-difluorophenyl)pyrrolidine-1-carbonyl]-1-(2,6-dimethoxyphenyl)-6-hydroxy-2-(5-methylpyridin-2-yl)-1,4-dihydropyrimidin-4-one] was tested, and the EC50 was 0.01 to 10 nM.

Same assay, conditions: human APJ, intracellular cAMP accumulation; read-out: hAPJ cAMP EC50 Potency range
Molecule `CC[C@@H](c1cc(F)cc(F)c1)n1c(-c2nc(C)cs2)nc(=O)c(C(=O)N2CCC(c3ccccc3F)C2)c1O` (single isomer, unassigned) [Example 208] has an EC50 of 0.01 to 10 nM.
`CCCCc1nc(=O)c(C(=O)N2CCC(c3ccc(F)cc3)CC2)c(O)n1-c1c(OC)cccc1OC` [Example 74, 2-butyl-1-(2,6-dimethoxyphenyl)-5-[4-(4-fluorophenyl)piperidine-1-carbonyl]-6-hydroxy-1,4-dihydropyrimidin-4-one] gave an EC50 of 10 to 100 nM.
In the case of `COc1cccc(OC)c1-n1c(CCC2CC2)nc(=O)c(C(=O)N2CC=C(c3ccc(Cl)cn3)C2)c1O` [Example 172, 5-[3-(5-chloropyridin-2-yl)-2,5-dihydro-1H-pyrrole-1-carbonyl]-2-(2-cyclopropylethyl)-1-(2,6-dimethoxyphenyl)-6-hydroxy-1,4-dihydropyrimidin-4-one], the EC50 is reported as 0.01 to 10 nM.
For `CC[C@@H](c1cc(F)cc(F)c1)n1c(-c2ccn(CC)n2)nc(=O)c(C(=O)N2CCC(c3ncc(F)cc3F)C2)c1O` (single isomer, unassigned) [Example 215], the EC50 was 0.01 to 10 nM.
For `COc1cccc(OC)c1-n1c(COC(C)C)nc(=O)c(C(=O)N2CCC(c3ccc(F)cc3F)C2)c1O` (single isomer, unassigned) [Example 162, 5-[3-(2,4-difluorophenyl)pyrrolidine-1-carbonyl]-1-(2,6-dimethoxyphenyl)-6-hydroxy-2-[(propan-2-yloxy)methyl]-1,4-dihydropyrimidin-4-one], the EC50 was 0.01 to 10 nM.
`CC[C@@H](c1cc(F)cc(F)c1)n1c(-c2ccn(CC)n2)nc(=O)c(C(=O)N2CCC(c3ncccc3F)C2)c1O` (single isomer, unassigned) [Example 181] was tested, and the EC50 was 0.01 to 10 nM.
`CCCCc1nc(=O)c(C(=O)N2CC[C@H](c3ccccc3)C2)c(O)n1C(c1ccccc1)C(C)C` (stereo partly drawn) [Example 130, 2-butyl-6-hydroxy-3-(2-methyl-1-phenylpropyl)-5-[(3R)-3-phenylpyrrolidine-1-carbonyl]-3,4-dihydropyrimidin-4-one] showed an EC50 of 10 to 100 nM.
With `CC[C@@H](c1cc(F)cc(F)c1)n1c(-c2nc(C)cs2)nc(=O)c(C(=O)N2CCC(c3ccc(F)cn3)C2)c1O` (single isomer, unassigned) [Example 206] the EC50 was 0.01 to 10 nM.
`COc1cccc(OC)c1-n1c(CCC2CC2)nc(=O)c(C(=O)N2CCC(c3ccc(F)cn3)C2)c1O` (single isomer, unassigned) [Example 175, 2-(2-cyclopropylethyl)-1-(2,6-dimethoxyphenyl)-5-[3-(5-fluoropyridin-2-yl)pyrrolidine-1-carbonyl]-6-hydroxy-1,4-dihydropyrimid in-4-one] showed an EC50 of 0.01 to 10 nM.
`CCOCc1nc(=O)c(C(=O)N2CCC(c3ccccn3)C2)c(O)n1-c1c(OC)cccc1OC` (single isomer, unassigned) [Example 55, 1-(2,6-dimethoxyphenyl)-2-(ethoxymethyl)-6-hydroxy-5-[3-(pyridin-2-yl)pyrrolidine-1-carbonyl]-1,4-dihydropyrimidin-4-one] showed an EC50 of 0.01 to 10 nM.
`CC[C@@H](c1cc(F)cc(F)c1)n1c(-c2cnn(C)c2)nc(=O)c(C(=O)N2CCC(c3ccc(F)cn3)C2)c1O` (single isomer, unassigned) [Example 191] was tested, and the EC50 was 0.01 to 10 nM.
Work on `CCCCc1nc(=O)c(C(=O)N2Cc3ccc(C#N)cc3C2)c(O)n1-c1c(OC)cccc1OC` [Example 65, 2-[2-butyl-1-(2,6-dimethoxyphenyl)-6-hydroxy-4-oxo-1,4-dihydropyrimidine-5-carbonyl]-2,3-dihydro-1H-isoindole-5-carbonitrile] yielded an EC50 of 0.01 to 10 nM.
With `CCOCc1nc(=O)c(C(=O)N2CCC(c3cccc(F)c3)C2)c(O)n1-c1c(OC)cccc1OC` (single isomer, unassigned) [Example 83, 1-(2,6-dimethoxyphenyl)-2-(ethoxymethyl)-5-[3-(3-fluorophenyl)pyrrolidine-1-carbonyl]-6-hydroxy-1,4-dihydropyrimidin-4-one] the EC50 was 0.01 to 10 nM.
For `CC[C@@H](c1cc(F)cc(F)c1)n1c(-c2ccn(C)n2)nc(=O)c(C(=O)N2CCC(c3ccc(F)cn3)C2)c1O` (single isomer, unassigned) [Example 185], the EC50 was 0.01 to 10 nM.

Same assay, conditions: read-out: hAPJ cAMP EC50 Potency range
`CCCCc1nc(=O)c(C(=O)N2CCC(Cc3ccc(C(F)(F)F)cc3)CC2)c(O)n1-c1c(OC)cccc1OC` [Example 380, 2-butyl-1-(2,6-dimethoxyphenyl)-6-hydroxy-5-(4-(4-(trifluoromethyl)benzyl)piperidine-1-carbonyl)pyrimidin-4(1H)-one] was tested, and the EC50 was 0.01 to 10 nM.
`CCCCc1nc(=O)c(C(=O)N2CCC(Oc3cc(F)cc(F)c3Cl)CC2)c(O)n1-c1c(OC)cccc1OC` [Example 386, 2-butyl-5-(4-(2-chloro-3,5-difluorophenoxy)piperidine-1-carbonyl)-1-(2,6-dimethoxyphenyl)-6-hydroxypyrimidin-4(1H)-one] gave an EC50 of 0.01 to 10 nM.
